For 9 molecules, Km, Activity and IC50 results are on record in ChEMBL document CHEMBL2074119, “Multispecific substrate recognition of kidney-specific organic anion transporters OAT-K1 and OAT-K2” (J Pharmacol Exp Ther, 2001).

The target of data set [1] is T1, OAT-K1 (Solute carrier organic anion transporter family member 1A3) (Rattus norvegicus, UniProt P70502).
T1 sequence (P70502 whole entry): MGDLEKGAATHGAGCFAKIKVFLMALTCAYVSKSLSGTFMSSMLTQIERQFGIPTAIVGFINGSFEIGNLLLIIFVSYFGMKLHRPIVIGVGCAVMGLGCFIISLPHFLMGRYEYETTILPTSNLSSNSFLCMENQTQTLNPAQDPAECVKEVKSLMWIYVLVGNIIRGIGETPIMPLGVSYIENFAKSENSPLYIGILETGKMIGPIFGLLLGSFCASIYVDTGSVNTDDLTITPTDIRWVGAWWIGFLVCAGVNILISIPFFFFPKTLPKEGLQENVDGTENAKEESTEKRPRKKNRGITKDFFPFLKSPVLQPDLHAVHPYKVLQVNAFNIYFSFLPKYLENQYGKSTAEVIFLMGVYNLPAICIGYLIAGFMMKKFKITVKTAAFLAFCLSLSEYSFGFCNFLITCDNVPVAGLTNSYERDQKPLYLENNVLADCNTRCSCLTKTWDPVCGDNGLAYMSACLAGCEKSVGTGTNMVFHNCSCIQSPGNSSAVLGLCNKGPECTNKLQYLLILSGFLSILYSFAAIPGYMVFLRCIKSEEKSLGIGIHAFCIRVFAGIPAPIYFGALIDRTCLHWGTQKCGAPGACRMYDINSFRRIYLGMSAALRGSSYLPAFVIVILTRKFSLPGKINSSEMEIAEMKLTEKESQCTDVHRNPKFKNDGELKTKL
The data set can be described thus: (§1) TP_TRANSPORTER: uptake in OAT-K1-expressing MDCK cells. To be noted: dog. Type of data set: functional, cell-based.

Data set [2] concerns the target T2, OAT-K2 (Solute carrier organic anion transporter family member 1A3) (Rattus norvegicus, UniProt P70502).
T2 sequence (P70502 whole entry): T1 sequence (P70502 whole entry)
The data set can be described thus: (§2) TP_TRANSPORTER: uptake in OAT-K2-expressing MDCK cells. Type of data set: functional, cell-based. Particulars: dog.

Data set [3] has as its target T3, Solute carrier organic anion transporter family member 1A3 (Rattus norvegicus, UniProt P70502).
T3 sequence (P70502 whole entry): T1 sequence (P70502 whole entry)
Description: TP_TRANSPORTER: inhibition of Taurocholate uptake (Taurocholate: 0.25 uM, OTA: 100 uM) in OAT-K1-expressing MDCK cells. Type of data set: functional, cell-based. Particulars: dog.

The target in data set [4] is T3, Solute carrier organic anion transporter family member 1A3. Description: TP_TRANSPORTER: inhibition of Taurocholate uptake (Taurocholate: 0.25 uM, DHEA-3-acetate: 100 uM) in OAT-K1-expressing MDCK cells. Type of data set: functional, cell-based. To be noted: dog.
For data set [5] the target is unchanged. The data set can be described thus: TP_TRANSPORTER: inhibition of MTX uptake (MTX: 0.1 uM, T4: 50 uM) in OAT-K2-expressing MDCK cells. Type of data set: functional, cell-based. To be noted: dog.
Data set [6] addresses T4, Solute carrier organic anion transporter family member 1A4 (Rattus norvegicus, UniProt O35913).
T4 sequence (O35913 whole entry): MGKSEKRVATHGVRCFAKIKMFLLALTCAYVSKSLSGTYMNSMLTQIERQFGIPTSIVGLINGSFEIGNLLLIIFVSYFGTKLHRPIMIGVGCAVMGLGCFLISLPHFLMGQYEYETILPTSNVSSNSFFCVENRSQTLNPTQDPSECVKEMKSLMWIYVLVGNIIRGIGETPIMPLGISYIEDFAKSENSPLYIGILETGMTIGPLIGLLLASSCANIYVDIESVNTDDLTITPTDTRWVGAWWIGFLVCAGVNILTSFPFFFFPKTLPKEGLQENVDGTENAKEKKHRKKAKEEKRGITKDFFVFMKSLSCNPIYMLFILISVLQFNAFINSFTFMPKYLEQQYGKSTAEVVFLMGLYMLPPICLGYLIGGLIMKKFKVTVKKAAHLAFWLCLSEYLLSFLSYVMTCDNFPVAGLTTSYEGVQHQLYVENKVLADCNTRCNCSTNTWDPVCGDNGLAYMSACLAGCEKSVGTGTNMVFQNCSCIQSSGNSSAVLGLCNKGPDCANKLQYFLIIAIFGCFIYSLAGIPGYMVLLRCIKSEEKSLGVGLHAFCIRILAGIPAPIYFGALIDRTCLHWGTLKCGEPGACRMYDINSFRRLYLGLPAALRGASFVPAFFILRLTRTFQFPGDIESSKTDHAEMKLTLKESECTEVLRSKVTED
Description: TP_TRANSPORTER: inhibition of Digoxin uptake in Xenopus laevis oocytes.

The target of data set [7] is T3, Solute carrier organic anion transporter family member 1A3. The data set can be described thus: TP_TRANSPORTER: inhibition of MTX uptake (MTX: 0.1 uM, T3: 50 uM) in OAT-K2-expressing MDCK cells. Type of data set: functional, cell-based. To be noted: dog.
Data set [8] shares this target. Description: TP_TRANSPORTER: inhibition of T3 uptake (T3: 0.43nM, MTX: 2500 uM) in OAT-K2-expressing MDCK cells. Type of data set: functional, cell-based. Particulars: dog.
Data set [9] shares this target. Description: TP_TRANSPORTER: inhibition of T3 uptake (T3: 0.43nM, MTX: 2500 uM) in OAT-K1-expressing MDCK cells. Type of data set: functional, cell-based. Particulars: dog.
The target is the same in data set [10]. The data set can be described thus: TP_TRANSPORTER: inhibition of Taurocholate uptake (Taurocholate: 0.25 uM, DHEAS: 100 uM) in OAT-K1-expressing MDCK cells. Particulars: dog. Type of data set: functional, cell-based.
Data set [11] has the same target. Description: TP_TRANSPORTER: inhibition of Taurocholate uptake (Taurocholate: 0.25 uM, DHEA: 100 uM) in OAT-K1-expressing MDCK cells. Type of data set: functional, cell-based. To be noted: dog.
Substrate in data set [12]: [H][C@@]12CC=C3C[C@@H](OS(=O)(=O)O)CC[C@]3(C)[C@@]1([H])CC[C@]1(C)C(=O)CC[C@@]21[H]
The data set is described as §2. Type of data set: functional, cell-based.

Substrate in data set [13]: CN(Cc1cnc2nc(N)nc(N)c2n1)c1ccc(C(=O)N[C@@H](CCC(=O)O)C(=O)O)cc1
The data set is described as §2. Type of data set: functional, cell-based.

Substrate in data set [14]: N[C@@H](Cc1cc(I)c(Oc2ccc(O)c(I)c2)c(I)c1)C(=O)O
The data set is described as §2. Type of data set: functional, cell-based.

Substrate in data set [15]: N[C@@H](Cc1cc(I)c(Oc2cc(I)c(O)c(I)c2)c(I)c1)C(=O)O
Described as §2. Type of data set: functional, cell-based.

Substrate in data set [16]: C[C@]12CC[C@@H]3c4ccc(O)cc4CC[C@H]3[C@@H]1CC[C@@H]2O[C@@H]1O[C@H](C(=O)O)[C@@H](O)[C@H](O)[C@H]1O
The data set is described as §2. Type of data set: functional, cell-based.

Substrate in data set [17]: [H][C@@]12CC=C3C[C@@H](OS(=O)(=O)O)CC[C@]3(C)[C@@]1([H])CC[C@]1(C)C(=O)CC[C@@]21[H]
The description is as §1. Type of data set: functional, cell-based.

Substrate in data set [18]: N[C@@H](Cc1cc(I)c(Oc2ccc(O)c(I)c2)c(I)c1)C(=O)O
Described as §1. Type of data set: functional, cell-based.

Substrate in data set [19]: N[C@@H](Cc1cc(I)c(Oc2cc(I)c(O)c(I)c2)c(I)c1)C(=O)O
Described as §1. Type of data set: functional, cell-based.

Substrate in data set [20]: C[C@]12CC[C@@H]3c4ccc(O)cc4CC[C@H]3[C@@H]1CC[C@@H]2O[C@@H]1O[C@H](C(=O)O)[C@@H](O)[C@H](O)[C@H]1O
The data set is described as §1. Type of data set: functional, cell-based.

In general, Km refers to the concentration of substrate that gives half-maximal velocity. In the case of `C[C@@H]1Cc2c(Cl)cc(C(=O)N[C@@H](Cc3ccccc3)C(=O)O)c(O)c2C(=O)O1` [3R14S-OCHRATOXIN A], the Michaelis constant (Km) in data set [1] turned out to be 5.6 µM; in [2], 16.6 µM. For the same molecule, the Activity entry in [3] is “inhibitor [(at a rough estimate) 55 % of control]”.
Regarding `CC(=O)O[C@H]1CC[C@@]2(C)C(=CC[C@@H]3[C@@H]2CC[C@]2(C)C(=O)CC[C@@H]32)C1` [DEHYDROEPIANDROSTERONE ACETATE], the Activity result in [4] is “inhibitor [(at a rough estimate) 30 % of control]”.
As to `N[C@@H](Cc1cc(I)c(Oc2cc(I)c(O)c(I)c2)c(I)c1)C(=O)O` [LEVOTHYROXINE], in data set [5], the Activity entry is “inhibitor [(at a rough estimate) 60 % of control]”.
By IC50 is commonly meant the midpoint of a concentration-inhibition curve. A lower IC50 goes with higher potency. In turn, `N[C@@H](Cc1cc(I)c(Oc2ccc(O)c(I)c2)c(I)c1)C(=O)O` [LIOTHYRONINE] yielded an IC50 in data set [6] of 50.4 µM. The Activity entry in data set [7] is “inhibitor [(at a rough estimate) 60 % of control]”.
For the molecule `CN(Cc1cnc2nc(N)nc(N)c2n1)c1ccc(C(=O)N[C@@H](CCC(=O)O)C(=O)O)cc1` [METHOTREXATE], the Activity result in data set [8] and in data set [9] was “inhibitor [(at a rough estimate) 75 % of control]” throughout.
Consider `C[C@]12CC[C@H](OS(=O)(=O)O)CC1=CC[C@@H]1[C@@H]2CC[C@]2(C)C(=O)CC[C@@H]12` [PRASTERONE SULFURIC ACID], for which, in data set [10], the Activity entry was “inhibitor [(at a rough estimate) 30 % of control]”.
`C[C@]12CC[C@H](O)CC1=CC[C@@H]1[C@@H]2CC[C@]2(C)C(=O)CC[C@@H]12` [PRASTERONE]: the Activity entry in data set [11] is “inhibitor [(at a rough estimate) 30 % of control]”.
In the case of `Cc1cn([C@H]2C[C@H](N=[N+]=[N-])[C@@H](CO)O2)c(=O)[nH]c1=O` [ZIDOVUDINE], the Km in data set [1] amounted to 64.3 µM; in data set [2], 76.3 µM.

B1: Solute carrier organic anion transporter family member 1A3 (Rattus norvegicus) (protein)
chain: T1 sequence (P70502 whole entry)
As to B1, the Michaelis constant (Km) in data set [12] came to 7.6 µM; in data set [13], 1.8 µM; in [14], 24.8 µM; in [15], 12 µM; in [16], 44.9 µM; in data set [17], 8.5 µM. Further, the values for the Km in data set [18], in data set [19] and in data set [20] were 43.8 µM, 20.2 µM and 35.3 µM, respectively.
